Legend:
morningglory = experiment: Test A preemergence; format: in vivo, Ipomoea spp.; conditions: Ipomoea, pre-emergence, 240 h, 0 to 100 scale (0 no effect, 100 complete control), read-out: Plant response rating, Morningglory; for pest or weed control at 125 g/ha: 125 g ai/ha; for pest or weed control at 500 g/ha: 500 g ai/ha, approx. 10 d
Outline: (§1)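 For preemergence, seeds were sown in a loam soil-sand blend and given a directed soil spray of test chemical in a non-phytotoxic solvent mixture with surfactant. For postemergence, plants in pots of the same blend were sprayed with the same formulation at the one- to two-leaf stage, 2 to 10 cm tall.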

corn = experiment: Test A preemergence; format: in vivo, Zea mays; conditions: Zea mays, pre-emergence, 240 h, 0 to 100 scale (0 no effect, 100 complete control); for Corn plant response rating (crop injury, 0 = no effect, 100 = complete kill) at 125 g/ha: 125 g ai/ha; for Corn plant response rating (crop injury, 0 = no effect, 100 = complete kill) at 500 g/ha: 500 g ai/ha, approx. 10 d
Outline: as §1

crabgrass, large = experiment: Test C preemergence; format: in vivo, Digitaria sanguinalis; conditions: for Plant response rating (scale of 0 to 100 where 0 is no effect and 100 is complete control): Crabgrass, Large, preemergence; for Crabgrass, Large plant response rating (0 to 100): Preemergence, visual rating after 13 to 15 d
Excerpt: (§2) Seeds of plant species selected from blackgrass (Alopecurus myosuroides), ryegrass, Italian (Italian ryegrass, Lolium multiflorum), wheat (winter wheat, Triticum aestivum), galium (catchweed bedstraw, Galium aparine), corn (Zea mays), crabgrass, large (large crabgrass, Digitaria sanguinalis), foxtail, giant, (giant foxtail, Setaria faberii), johnsongrass (Sorghum halepense), lambsquarters (Chenopodium album), morningglory (Ipomoea coccinea), nutsedge, yellow (yellow nutsedge, Cyperus esculentus), pigweed (Amaranthus retroflexus), ragweed (common ragweed, Ambrosia elatior), soybean (Glycine max), barnyardgrass (Echinochloa crus-galli), oilseed rape (Brassica napus), waterhemp (common waterhemp, Amaranthus rudis), and velvetleaf (Abutilon theophrasti) were planted into a blend of loam soil and sand and treated preemergence with test chemicals formulated in a non-phytotoxic solvent mixture which included a surfactant. At the same time, plants selected from these crop and weed species and also chickweed (common chickweed, Stellaria media), oat, wild (wild oat, Avena fatua), and kochia (Kochia scoparia), were planted in pots containing Sunshine Redi-Earth® planting medium comprising spaghnum peat moss, vermiculite, starter nutrients and dolomitic limestone and treated with postemergence applications of test chemicals formulated in the same manner. Plants ranged in height from 2 to 18 cm (1- to 4-leaf stage) for postemergence treatments. […] A dash (-) response means no test result.

nutsedge, yellow = experiment: Test C preemergence; format: in vivo, Cyperus esculentus; conditions: for Plant response rating (scale of 0 to 100 where 0 is no effect and 100 is complete control): Nutsedge, Yellow, preemergence; for Nutsedge, Yellow plant response rating (0 to 100): Preemergence, visual rating after 13 to 15 d
Excerpt: as §2

ragweed = experiment: Test C preemergence; format: in vivo, Ambrosia elatior; conditions: for Ragweed plant response rating (0 to 100): Preemergence, visual rating after 13 to 15 d; for Plant response rating (scale of 0 to 100 where 0 is no effect and 100 is complete control): Ragweed, preemergence
Excerpt: as §2

galium = experiment: Test D preemergence; format: in vivo, Galium aparine; conditions: for Plant response rating: Galium: scale 0 to 100; for Plant response rating (0 to 100), Galium: 16 g ai/ha, 0 is no effect, 100 is complete control
Excerpt: (§3) Seeds of plant species selected from bluegrass (annual bluegrass, Poa annua), blackgrass (Alopecurus myosuroides), canarygrass (Phalaris minor), chickweed (common chickweed, Stellaria media), galium (catchweed bedstraw, Galium aparine), bromegrass, down (downy bromegrass, Bromus tectorum), Russian thistle (Salsola kali), field poppy (Papaver rhoeas), field violet (Viola arvensis), foxtail, green (green foxtail, Setaria viridis), deadnettle (henbit deadnettle, Lamium amplexicaule), ryegrass, Ital. (Italian ryegrass, Lolium multiflorum), kochia (Kochia scoparia), lambsquarters (Chenopodium album), oilseed rape (Brassica napus), pigweed (Amaranthus retroflexus), chamomile (scentless chamomile, Matricaria inodora), speedwell (bird's-eye speedwell, Veronica persica), barley, spring (spring barley, Hordeum vulgare), wheat, spring (spring wheat, Triticum aestivum), buckwheat, wild (wild buckwheat, Polygonum convolvulus), wild mustard (Sinapis arvensis), oat, wild (wild oat, Avena fatua), radish, wild (wild radish, Raphanus raphanistrum), […]), barley, winter (winter barley, Hordeum vulgare), and wheat, winter (winter wheat, Triticum aestivum) were planted into a silt loam soil and treated preemergence with test chemicals formulated in a non-phytotoxic solvent mixture which included a surfactant. At the same time, these species were planted in pots containing Sunshine Redi-Earth® planting medium comprising spaghnum peat moss, vermiculite, starter nutrients and dolomitic limestone and treated with postemergence applications of the test chemicals formulated in the same manner. Plants ranged in height from 2 to 18 cm (1- to 4-leaf stage). Treated plants and controls were maintained in a controlled growth environment for 14 to 21 d after which time all species were compared to controls and visually evaluated. […] A dash (-) response means no test result.

chamomile = experiment: Test D preemergence; format: in vivo, Matricaria inodora; conditions: for Plant response rating: Chamomile: scale 0 to 100; for Plant response rating (0 to 100), Chamomile: 16 g ai/ha, 0 is no effect, 100 is complete control
Excerpt: as §3

bluegrass = experiment: Test D postemergence; format: in vivo, Poa annua; conditions: scale 0 to 100
Excerpt: as §3

ryegrass, Italian = experiment: Test A preemergence; format: in vivo, Lolium multiflorum; conditions: 0 to 100 scale (0 no effect, 100 complete control)
Outline: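 Ratings reflect visual injury after ~10 d in greenhouse, 0 = no effect, 100 = complete control. Postemergence treatment was applied to one- to two-leaf seedlings; preemergence treatment was a directed soil spray at planting.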

| SMILES | Plant response rating (scale of 0 to 100 where 0 is no effect and 100 is complete control) (crabgrass, large; 125 g ai/ha) | Plant response rating (scale of 0 to 100 where 0 is no effect and 100 is complete control) (crabgrass, large; 250 g ai/ha) | Crabgrass, Large plant response rating (0 to 100) (crabgrass, large; 31 g ai/ha) | Crabgrass, Large plant response rating (0 to 100) (crabgrass, large; 62 g ai/ha) | Plant response rating (scale of 0 to 100 where 0 is no effect and 100 is complete control) (nutsedge, yellow; 250 g ai/ha) | Nutsedge, Yellow plant response rating (0 to 100) (nutsedge, yellow; 31 g ai/ha) | Nutsedge, Yellow plant response rating (0 to 100) (nutsedge, yellow; 62 g ai/ha) | Ragweed plant response rating (0 to 100) (ragweed; 31 g ai/ha) | Ragweed plant response rating (0 to 100) (ragweed; 62 g ai/ha) | Plant response rating (scale of 0 to 100 where 0 is no effect and 100 is complete control) (ragweed; 125 g ai/ha) | Plant response rating (scale of 0 to 100 where 0 is no effect and 100 is complete control) (ragweed; 250 g ai/ha) | Plant response rating: Galium (galium; 125 g ai/ha) | Plant response rating: Chamomile (chamomile; 31 g ai/ha) | Plant response rating: Chamomile (chamomile; 62 g ai/ha) | Plant response rating: Chamomile (chamomile; 125 g ai/ha) | Plant response rating: Bluegrass (bluegrass; 31 g ai/ha) | Plant response rating: Bluegrass (bluegrass; 62 g ai/ha) | Plant response rating: Bluegrass (bluegrass; 125 g ai/ha) | Plant response rating (scale of 0 to 100 where 0 is no effect and 100 is complete control) (nutsedge, yellow; 125 g ai/ha) | Plant response rating: Galium (galium; 62 g ai/ha) | also measured |
| --- | --- | --- | --- | --- | --- | --- | --- | --- | --- | --- | --- | --- | --- | --- | --- | --- | --- | --- | --- | --- | --- |
| CCc1nc(-c2ccc(C(F)(F)F)cc2)nn1Cc1ccnc(C(F)(F)F)c1 [Compound 1, 4-[[5-ethyl-3-[4-(trifluoromethyl)phenyl]-1H-1,2,4-triazol-1-yl]methyl]-2-(trifluoromethyl)pyridine] | 100 | 100 | 98 | 100 | 15 | 0 | 5 | 35 | 50 | 60 | 70 | 60 | 0 | 20 | 80 | 10 | 20 | 35 |  |  | pest or weed control at 125 g/ha (morningglory): 30%; pest or weed control at 500 g/ha (morningglory): 80%; Corn plant response rating (crop injury, 0 = no effect, 100 = complete kill) at 125 g/ha (corn): 10%; Corn plant response rating (crop injury, 0 = no effect, 100 = complete kill) at 500 g/ha (corn): 20%; Plant response rating: Galium (galium; 250 g ai/ha): 100; Plant response rating: Chamomile (chamomile; 250 g ai/ha): 100; Plant response rating: Bluegrass (bluegrass; 250 g ai/ha): 55 |
| CCOc1nc(-c2ccc(F)cc2)nn1Cc1ccnc(C(F)(F)F)c1 [Compound 8, 4-[[5-ethoxy-3-(4-fluorophenyl)-1H-1,2,4-triazol-1-yl]methyl]-2-(trifluoromethyl)pyridine] | 100 | 100 | 100 | 100 | 80 | 10 | 40 | 75 | 85 | 90 | 90 | 50 | 10 | 30 | 100 | 55 | 65 | 75 | 55 | 35 | pest or weed control at 125 g/ha (morningglory): 100%; pest or weed control at 500 g/ha (morningglory): 100%; Corn plant response rating (crop injury, 0 = no effect, 100 = complete kill) at 125 g/ha (corn): 90%; Corn plant response rating (crop injury, 0 = no effect, 100 = complete kill) at 500 g/ha (corn): 100%; Plant response rating: Galium (galium; 250 g ai/ha): 70; Plant response rating: Chamomile (chamomile; 250 g ai/ha): 100; Plant response rating: Bluegrass (bluegrass; 250 g ai/ha): 75 |
| FC(F)(F)COc1nc(-c2ccccc2)nn1Cc1ccnc(C(F)(F)F)c1 [Compound 24] | 100 | 100 | 98 | 98 | 15 | 0 | 0 | 5 | 25 | 25 | 55 | 75 | 35 | 85 | 90 | 35 | 60 | 70 | 5 | 65 | Plant response rating, Ryegrass, Italian (ryegrass, Italian; 125 g ai/ha): 70; Plant response rating, Ryegrass, Italian (ryegrass, Italian; 500 g ai/ha, approx. 10 d): 80; Plant response rating (0 to 100), Galium (galium): 55; Plant response rating (0 to 100), Chamomile (chamomile): 0; Plant response rating: Bluegrass (bluegrass; 16 g ai/ha): 15 |
| CCOc1nc(-c2ccccc2)nn1Cc1ccnc(C(F)(F)F)c1 [Compound 27] | 100 | 100 | 100 | 100 | 60 | 5 | 10 | 50 | 50 | 98 | 98 | 100 | 90 | 100 | 100 | 60 | 65 | 70 | 35 | 100 | Plant response rating, Ryegrass, Italian (ryegrass, Italian; 125 g ai/ha): 90; Plant response rating, Ryegrass, Italian (ryegrass, Italian; 500 g ai/ha, approx. 10 d): 100; Plant response rating (0 to 100), Galium (galium): 70; Plant response rating (0 to 100), Chamomile (chamomile): 10; Plant response rating: Bluegrass (bluegrass; 16 g ai/ha): 35 |
| COc1nc(-c2ccc(Cl)cc2)nn1Cc1ccnc(C(F)(F)F)c1 [Compound 28] |  |  |  |  |  |  |  |  |  |  |  | 80 | 20 | 75 | 95 | 20 | 45 | 40 |  | 75 | Plant response rating, Ryegrass, Italian (ryegrass, Italian; 125 g ai/ha): 20; Plant response rating, Ryegrass, Italian (ryegrass, Italian; 500 g ai/ha, approx. 10 d): 90; Plant response rating (0 to 100), Galium (galium): 65; Plant response rating (0 to 100), Chamomile (chamomile): 0; Plant response rating: Bluegrass (bluegrass; 16 g ai/ha): 20 |
